Results from publication doi:10.1101/208439v1 (biorxiv, 2017).
Residue numbers refer to the chain shown, from its start. Read-outs that look alike come from different tables or passages of the source.

What was measured:
NSD2 [1] = molecular target: T1, NSD2 (Homo sapiens, UniProt O96028); assay: HotSpot [3H]SAM filter-binding methyltransferase assay; type: biochemical; details: nucleosomes […], […] SAM, pH […] DTT, […] °C
T1 construct: full length (residues 2-1365), N-terminal His tag, insect cell/baculovirus
T1 sequence (O96028 2-1365): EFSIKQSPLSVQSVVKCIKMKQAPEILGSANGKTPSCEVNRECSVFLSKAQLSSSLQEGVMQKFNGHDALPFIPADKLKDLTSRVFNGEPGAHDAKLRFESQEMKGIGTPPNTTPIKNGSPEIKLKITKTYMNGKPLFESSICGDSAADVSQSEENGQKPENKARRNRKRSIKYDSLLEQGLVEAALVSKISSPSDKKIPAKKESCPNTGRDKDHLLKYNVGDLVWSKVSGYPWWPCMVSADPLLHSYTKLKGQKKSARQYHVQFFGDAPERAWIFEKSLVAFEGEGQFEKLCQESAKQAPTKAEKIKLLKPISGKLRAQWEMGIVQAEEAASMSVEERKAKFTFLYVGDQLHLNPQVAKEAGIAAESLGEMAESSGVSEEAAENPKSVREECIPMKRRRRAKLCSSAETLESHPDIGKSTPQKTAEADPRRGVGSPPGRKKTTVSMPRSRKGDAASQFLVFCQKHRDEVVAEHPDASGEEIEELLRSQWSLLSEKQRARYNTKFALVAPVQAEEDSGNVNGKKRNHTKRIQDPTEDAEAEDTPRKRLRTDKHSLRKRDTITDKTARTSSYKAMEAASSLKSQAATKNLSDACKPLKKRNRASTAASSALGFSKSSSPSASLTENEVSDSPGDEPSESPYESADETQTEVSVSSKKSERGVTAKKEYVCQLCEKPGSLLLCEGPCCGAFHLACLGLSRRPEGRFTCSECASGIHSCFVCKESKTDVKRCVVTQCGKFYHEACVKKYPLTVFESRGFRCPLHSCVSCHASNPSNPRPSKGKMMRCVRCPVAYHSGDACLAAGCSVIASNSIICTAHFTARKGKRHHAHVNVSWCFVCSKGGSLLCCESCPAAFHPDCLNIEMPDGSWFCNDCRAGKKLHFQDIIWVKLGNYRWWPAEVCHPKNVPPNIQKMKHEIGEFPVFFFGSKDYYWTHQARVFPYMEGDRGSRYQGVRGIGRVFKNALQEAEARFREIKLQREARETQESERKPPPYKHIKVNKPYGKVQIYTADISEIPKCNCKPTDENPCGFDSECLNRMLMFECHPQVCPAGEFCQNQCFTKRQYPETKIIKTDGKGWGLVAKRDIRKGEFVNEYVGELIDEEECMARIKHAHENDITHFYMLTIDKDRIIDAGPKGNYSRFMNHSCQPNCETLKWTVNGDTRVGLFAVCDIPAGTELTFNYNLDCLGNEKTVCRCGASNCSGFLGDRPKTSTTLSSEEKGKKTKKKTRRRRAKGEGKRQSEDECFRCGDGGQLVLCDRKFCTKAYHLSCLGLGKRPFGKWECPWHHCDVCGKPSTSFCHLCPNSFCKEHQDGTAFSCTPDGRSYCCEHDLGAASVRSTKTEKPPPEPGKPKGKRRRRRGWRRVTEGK

DNMT3a = DNMT3a (Homo sapiens, UniProt Q9Y6K1); assay: biochemical
NSD2 [2] = molecular target: T2, NSD2 (Homo sapiens, UniProt O96028, E1099K); assay: HotSpot [3H]SAM filter-binding methyltransferase assay; type: biochemical
T2 construct: full length (residues 2-1365), N-terminal His tag, insect cell/baculovirus
T2 sequence (O96028 2-1365 E1099K): T1 sequence (O96028 2-1365) with E1098K

[3] = nucleosomes, […] SAM, pH […] MgCl2, […] DTT, […] °C, single experiment

DNMT3a, sequence (Q9Y6K1 whole entry, looked up): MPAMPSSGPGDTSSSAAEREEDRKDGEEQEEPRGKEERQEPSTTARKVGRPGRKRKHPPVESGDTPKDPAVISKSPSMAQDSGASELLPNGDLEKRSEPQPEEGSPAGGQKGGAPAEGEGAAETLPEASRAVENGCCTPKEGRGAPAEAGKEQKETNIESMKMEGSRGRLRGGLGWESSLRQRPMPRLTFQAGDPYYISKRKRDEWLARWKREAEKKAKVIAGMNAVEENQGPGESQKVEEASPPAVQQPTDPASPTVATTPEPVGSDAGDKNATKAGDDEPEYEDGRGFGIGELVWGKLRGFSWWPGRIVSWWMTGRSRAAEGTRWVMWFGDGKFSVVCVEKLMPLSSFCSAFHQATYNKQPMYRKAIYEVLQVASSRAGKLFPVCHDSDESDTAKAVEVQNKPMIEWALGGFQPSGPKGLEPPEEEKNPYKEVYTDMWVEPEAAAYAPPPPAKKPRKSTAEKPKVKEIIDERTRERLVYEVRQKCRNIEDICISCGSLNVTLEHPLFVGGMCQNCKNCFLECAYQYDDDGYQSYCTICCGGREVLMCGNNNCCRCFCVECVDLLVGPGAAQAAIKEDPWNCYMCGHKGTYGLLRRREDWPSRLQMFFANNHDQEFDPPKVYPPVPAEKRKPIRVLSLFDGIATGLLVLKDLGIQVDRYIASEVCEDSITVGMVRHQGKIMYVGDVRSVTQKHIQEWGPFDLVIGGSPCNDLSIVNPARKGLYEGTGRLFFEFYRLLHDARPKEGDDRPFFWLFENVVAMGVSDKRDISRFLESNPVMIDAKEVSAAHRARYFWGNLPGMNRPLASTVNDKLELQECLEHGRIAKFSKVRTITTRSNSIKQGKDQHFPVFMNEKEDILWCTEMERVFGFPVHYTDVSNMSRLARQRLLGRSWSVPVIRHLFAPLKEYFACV

SMILES | IC50 (NSD2 [1]) [µM] | IC50 (DNMT3a) [µM] | IC50 (NSD2 [2]) [µM] | IC50 (NSD2 [1]; compound is redox-active) [µM] | IC50 (DNMT3a; read-out: DA3003-1 IC50, inhibitor) [µM] | IC50 (NSD2 [2]; [3]) [µM]
CC1(C)CCC(CN2CCN(c3ccc(C(=O)NS(=O)(=O)c4ccc(NCC5CCOCC5)c([N+](=O)[O-])c4)c(Oc4cnc5[nH]ccc5c4)c3)CC2)=C(c2ccc(Cl)cc2)C1 [ABT-199] | 1.7 | 18 | 2.2 |  |  | 
O=C1C(Cl)=C(NCCN2CCOCC2)C(=O)c2ncccc21 [DA3003-1] |  |  |  | 0.17 | 1.1 | 0.11
COc1cccc(-n2nc(C(=O)O)cc2-c2ccc(C3CCCCC3)c(Cl)c2)c1 [TC LPA5 4] | 8.5 | 16 |  |  |  | 7.2
